Measurements taken from PMC12430429, “Synthesis, Structure, DNA/BSA Binding, DNA Cleaving, Cytotoxic and SOD Mimetic Activities of Copper(II) Complexes Derived from Methoxybenzylamine Schiff Base Ligands” (Molecules, 2025).

Assays:
ct-DNA = test: DNA binding study by UV–Vis absorption titration; design: species or system calf; conditions: intraligand band ca. 370 nm on addition of ct-DNA
Procedure: The absorption spectra of complexes 4a–c (1 × 10^−[…]) were recorded in the presence of increasing amounts of ct-DNA. Intraligand absorption bands with λmax in the region 350 –380 nm were used to monitor the interaction of compounds with ct-DNA. The intraligand absorption value was chosen as λmax = […], so the absorbance of DNA would not interfere. The UV–Vis spectrum affected by DNA addition is shown for complexes 4a in Figure 3, and the UV–Vis spectra of other compounds are provided in the Supplementary Materials (Figure S3-1).
The DNA binding constants (Kb) of the complexes were determined by the Wolfe–Shimer equation (Equation (1)) and the respective plots (Figure 3 and Figure S3-1).
The interactions of prepared complexes 4a–c with ct-DNA have been studied by UV–Vis monitored titration. The ct-DNA solution was prepared by dissolving 6 mg of ct-DNA in 5 mL of citrate buffer (composed of 15 mM sodium citrate and 150 mM sodium chloride mixture solution, at pH = 7.0). The concentration of ct-DNA was then determined by UV–Vis spectroscopy with the molar absorption coefficient of ct-DNA at 260 nm (6600 M^−1cm^−1). The studied complexes were dissolved in DMSO, from which working solutions were prepared by dilution using citrate buffer solution. Increasing concentrations of ct-DNA were then added to a buffer/DMSO solution (<1% DMSO) of the corresponding complex (1 × 10^−[…]).
For the values of the binding strength of the interaction between the complex and the DNA molecule, binding constants Kb were calculated by the ratio of slope to the y intercept in the plots [DNA]/(εA-εf) compared to [DNA], according to the Wolfe–Shimer equation (Equation (1)):(1) [DNA]/(εA−εf)=[DNA]/(εb−εf)+1/Kb(εb−εf) where [DNA] is the concentration of DNA in base pairs, εf is the extinction coefficient of the free complex at the corresponding λmax, εA = Aobsd/[compound] and εb is the extinction coefficient of the complex in the fully bound form.

HepG2 cells = test: MTT cytotoxicity assay, HepG2; type: cell-based, human; conditions: 72 h
Procedure: (§1) The cytotoxicity study of the prepared copper(II) complexes was performed using the MTT assay on human cell lines—A549 (adenocarcinoma human alveolar basal epithelial cell line), HepG2 (human liver cancer cell line) and HEL (human lung fibroblast cell line, normal cells).
(§2) The cytotoxicity of the prepared copper(II) complexes in human cell lines was evaluated using the 3-(4,5-dimethylthiazol-2-yl)-2,5-diphenyltetrazolium bromide (MTT) assay following the protocol by Mosmann. Briefly, A549 (human lung epithelial cells, carcinoma), HepG2 (human liver epithelial cells, carcinoma) and HEL (human lung fibroblast cells, normal) cells were seeded in plastic 96-well plates at a density of 1.5–2 × 10^4 cells per well. […] After the treatment, the samples were washed with phosphate-buffered saline (PBS), followed by 4 h of incubation with 1 mg/mL of MTT. Subsequently, the MTT solution was removed, and the formed formazane solids were dissolved in dimethyl sulfoxide for 30 min. The photometric evaluation (at 540 nm and 690 nm) was carried out using an xMark™ Microplate Absorbance Spectrophotometer (Bio-Rad, Hercules, CA, USA) [88].
(§3) A549 (ATCC® CCL-185), HepG2 (ATCC® HB-8065) and HEL299 (ATCC® CCL-137) cells were obtained from Lambda Life (Bratislava, Slovakia). A549 cells were kept in Dulbecco’s Modified Eagle’s Medium (DMEM) supplemented with 10% fetal bovine serum (FBS) and 1% antibiotics (penicillin and streptomycin). HepG2 cells were kept in Williams medium supplemented with 10% fetal bovine serum (FBS) and 1% antibiotics (penicillin and streptomycin). HEL299 cells were kept in Minimum Essential Medium (MEM) supplemented with 10% fetal bovine serum (FBS), 1% antibiotics (penicillin and streptomycin) and 1% non-essential amino acids (NEAA). The cells were cultured in a humidified atmosphere of 5% CO2 at 37 °C. Once the cells reached approximately 80% confluence, they were harvested and subcultured after trypsin treatment.

[1] = biological target: bovine serum albumin (BSA) (Bos taurus, UniProt P02769); test: Bovine serum albumin binding (tryptophan fluorescence quenching); conditions: for dynamic quenching constant Ksv / quenching constant kq: BSA 3 μM, citrate buffer pH 7.0; for association binding constant KBSA / n (number of binding sites for albumin): Scatchard equation
Procedure: The fluorescence emission spectra of BSA show intense fluorescence emission at 336 nm upon excitation at 280 nm. This is due to the presence of two tryptophan residues (Trp134 and Trp212). Fluorescence quenching data were analyzed to obtain various binding parameters for the interaction of complexes 4a–c with BSA.
The interaction of complexes with serum albumin was characterized by the Stern–Volmer constant Ksv and the quenching constant kq, which was calculated using the Stern–Volmer equation (Figure S4-2) together with the associate binding constant KBSA and the number of binding sites per albumin n determined from the Scatchard equations (Equation (6), Figure S4-3); the values are summarized in Table 6.
The BSA binding of complexes 4a–c was studied by tryptophan fluorescence emission quenching experiments using BSA (3 μM) in citrate buffer solution (containing 15 mM trisodium citrate and 150 mM sodium chloride at pH 7.0). The emission intensity quenching of BSA tryptophan residues at 336 nm was measured by increasing the concentration of the quencher complexes 4a–c. The concentration of the added complexes ranged from 0 to 0.2 mM. The fluorescence emission spectra were recorded in the 300–420 nm range and with an excitation wavelength of 280 nm. The values of the Stern–Volmer constant KSV (in M^−1), the BSA binding constant K (in M^−1) for the compound–BSA interaction and the BSA quenching constant kq (in M^−1 s^−1) have been calculated from the Stern–Volmer (Equations (2)–(4)). and Scatchard equations (Equation (6)):(6) ΔI/Io/[Q]=nK−KΔI/Io
The BSA binding constant K (in M^−1) can be calculated from the slope of the Scatchard plots, and the number of binding sites per albumin (n) is given by the ratio of the y intercept to the slope.

EB–DNA adduct (ct-DNA) = test: EB–DNA displacement method (fluorescence quenching); type: binding, calf; conditions: for Stern–Volmer quenching constant Ksv / quenching rate constant kq: EB–DNA adduct; for quenching rate constant kq: τ0 = 23 × 10^−9 s; for Δ I/I0, EB–DNA fluorescence quenching: maximum quenching of EB–DNA emission
Description: Competitive-binding experiments using the ethidium bromide (EB) displacement method from DNA may provide another confirmation of the binding affinity of the complexes. EB is a well-known DNA intercalator able to form an EB–DNA adduct by its insertion between adjacent DNA base pairs. The EB–DNA adduct is distinguished by an intense fluorescence emission band at 615 nm after excitation at 540 nm. Introducing a compound with DNA affinity leads to emission intensity decrease of the EB–DNA adduct as a result of the competition between the measured compound and EB for the binding sites within DNA.
Competitive-binding experiments to determine the displacement of the intercalator ethidium bromide (EB) from the EB–DNA adduct were conducted by fluorescence spectroscopy. To prepare the EB–DNA adduct, 20 μM EB and 54 μM ct-DNA were added to citrate buffer (sodium citrate at 15 mM and sodium chloride at 150 mM at pH = 7.0). The addition of increasing concentrations of complexes 4a–c (c = 1 mM) to a solution of the EB–DNA complex corresponded to the intercalating effect of the complexes. The concentration of the added complexes ranged from 0 to 0.2 mM. Fluorescence emission spectra were recorded in the range of 550–800 nm with an excitation wavelength of 515 nm. […] Quenching of the EB–DNA emission band by the compounds 4a–c was calculated using the Stern–Volmer equation (Equations (2)–(4)).
The extent of the inner-filter effect can be roughly estimated with the following equation:(2) Icorr=Imeas×10^ε(λexc)cd/2×10^ε(λem)cd/2 where Icorr is the corrected intensity, Imeas is the measured intensity, c is the quencher concentration, d is the width of the cuvette (1 cm) and ε(λexc) and ε(λem) are the […] of the quencher at the excitation and the emission wavelength calculated from the UV–Vis spectra of the complexes.
The quenching of the EB–DNA emission band by compounds was calculated via the Stern–Volmer equation:(3) Io/I=1+kqτ0Q=1+KSVQ where Io = the initial fluorescence intensity of the EB–DNA adduct, and I is the fluorescence intensity of the EB–DNA adduct after the addition of the quencher (studied complexes), kq = the quenching rate constant, KSV = the Stern–Volmer constant, τo = the average fluorescence lifetime of the EB–DNA adduct (23 × 10^−9 s), [Q] = the quencher concentration, respectively, KSV (in M^−1) can be obtained by the slope of the Stern–Volmer plot and kq (in M^−1 s^−1) can be calculated from Equation (4):(4) KSV=kqτ0

A549 cells = test: MTT cytotoxicity assay, A549; type: cell-based, human; conditions: 72 h
Procedure: as §1, §2, §3

Sequence of bovine serum albumin (BSA) (P02769 25-607): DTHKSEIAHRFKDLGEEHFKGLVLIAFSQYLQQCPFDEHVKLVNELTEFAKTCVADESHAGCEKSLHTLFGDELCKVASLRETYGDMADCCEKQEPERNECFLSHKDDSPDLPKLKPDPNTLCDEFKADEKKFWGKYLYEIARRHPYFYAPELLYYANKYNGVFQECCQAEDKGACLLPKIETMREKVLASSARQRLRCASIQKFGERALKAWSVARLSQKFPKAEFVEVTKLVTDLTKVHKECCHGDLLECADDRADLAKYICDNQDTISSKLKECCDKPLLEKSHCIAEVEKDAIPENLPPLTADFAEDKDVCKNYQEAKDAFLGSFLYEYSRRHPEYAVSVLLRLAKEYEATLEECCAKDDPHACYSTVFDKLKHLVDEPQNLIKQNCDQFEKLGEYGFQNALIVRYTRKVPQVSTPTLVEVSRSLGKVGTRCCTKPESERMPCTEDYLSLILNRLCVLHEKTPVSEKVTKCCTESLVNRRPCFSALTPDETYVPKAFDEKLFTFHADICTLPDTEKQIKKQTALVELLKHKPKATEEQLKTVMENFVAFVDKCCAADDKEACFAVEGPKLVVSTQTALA

Compound | decrease of intensity (ΔA/A0), hypochromism (ct-DNA) | IC50 (HepG2 cells) | dynamic quenching constant Ksv [1] | quenching constant kq [1] | association binding constant KBSA [1] | n (number of binding sites for albumin) [1] | Stern–Volmer quenching constant Ksv (EB–DNA adduct (ct-DNA)) | quenching rate constant kq (EB–DNA adduct (ct-DNA)) | Δ I/I0, EB–DNA fluorescence quenching (EB–DNA adduct (ct-DNA)) | IC50 (A549 cells)
COc1ccccc1CN=Cc1ccccc1[O-].COc1ccccc1CN=Cc1ccccc1[O-].[Cl-].[Cl-].[Cu+2].[Cu+2] [Complex 4a, [Cu2 (Sal-2-MeOBn)2 Cl2]] | 32% | 17.9 ± 2.6 µM | 7.16 (±0.03) M^−1 × 10^4 | 7.16 (±0.03) M^−1s^−1 × 10^12 | 6.66 (±0.30) M^−1 × 10^4 | 1.03 | 4.58 (±0.10) M^−1 × 10^3 | 1.98 (±0.05) M^−1 s^−1 × 10^11 | 45.7% | 66.4 ± 6.2 µM
COc1cccc(CN=Cc2ccccc2[O][Cu][O]c2ccccc2C=NCc2cccc(OC)c2)c1 [Complex 4b, [Cu (Sal-3-MeOBn)2]] | 26% | 32.8 ± 4.9 µM | 6.39 (±0.06) M^−1 × 10^4 | 6.39 (±0.06) M^−1s^−1 × 10^12 | 5.37 (±0.25) M^−1 × 10^4 | 0.94 | 3.61 (±0.09) M^−1 × 10^3 | 1.56 (±0.04) M^−1 s^−1 × 10^11 | 40.1% | 127 ± 8.1 µM
COc1ccc(CN=Cc2ccccc2[O-])cc1.COc1ccc(CN=Cc2ccccc2[O-])cc1.[Cl-].[Cl-].[Cu+2].[Cu+2] [Complex 4c, [Cu2 (Sal-4-MeOBn)2 Cl2]] | 28% | 21.6 ± 4.9 µM | 4.86 (±0.15) M^−1 × 10^4 | 4.86 (±0.15) M^−1s^−1 × 10^12 | 4.77 (±0.20) M^−1 × 10^4 | 1.16 | 3.82 (±0.12) M^−1 × 10^3 | 1.66 (±0.05) M^−1 s^−1 × 10^11 | 40.7% | 72 ± 6.5 µM
